From patent publication US6809077B2, “Cyclosporin analogs for the treatment of autoimmune diseases” (Enanta Pharmaceuticals, Inc., priority 2001, dated 2004)

Experiments:
[1] = tested on: NFAT proteins (pNFAT-Luc luciferase) in Jurkat cells; experiment: NFAT reporter gene assay, pNFAT-Luc plasmid in Jurkat cells; type: cell-based, human; settings: Jurkat cells transfected with pNFAT-Luc, treated with 60 ng/ml of PMA and 1 μg/ml of inomycin in combination
From the text: (§1) NFAT activation follows precisely the activation of calcineurin by increased free calcium levels in the cytoplasm. Researchers from diverse fields are interested in the NFAT family of transcription factors, which are potential targets for newer and safer immunosuppressive drugs. In addition, the activation of NFAT proteins involves various cellular signal transduction pathways, including calcium mobilization and mitogen-activated protein kinase (MAP kinase) pathways linked to T-cell receptors and Ras1. To assist researchers probing the activity of NFAT proteins, Stratagene has developed a PathDetect cis-reporter plasmid, the pNFAT-Luc reporter plasmid (Stratagene, Inc. catalog #219094), containing the NFAT binding site from the human IL-2 gene.2,7-9. The NEAT cis-reporting system includes the transfection-ready pNFAT-Luc reporter plasmid and the pCIS-CK negative control plasmid.
(§2) The backbone of the 5749-base-pair pNFAT-Luc plasmid is the pFR-Luc reporter plasmid of the aforementioned PathDetect trans-reporting system. […]
(§3) Cyclosporin inhibits the activity of calcineurin, a protein phosphatase regulated by intracellular calcium mobilization. […] The inhibition of luciferase expression from pNFAT-Luc in the present model, in both Jurkat and CHO cells induced by PMA and ionomycin, was monitored for cyclosporin (as a positive control) and the cyclosporin analogs of the present invention.

[2] = tested on: NFAT proteins (pNFAT-Luc luciferase) in Chinese hamster ovary cells (CHO cells); experiment: NFAT reporter gene assay, pNFAT-Luc plasmid in CHO cells; type: cell-based; settings: CHO cells transfected with pNFAT-Luc, treated with 60 ng/ml of PMA and 1 μg/ml of inomycin in combination
From the text: as §1, §2, §3

[3] = tested on: NFAT proteins (pNFAT-Luc luciferase) in cells transfected with pNFAT-Luc; experiment: NFAT reporter gene assay, cells transfected with pNFAT-Luc, single stimulus; type: cell-based; settings: treated with either PMA or onomycin alone
From the text: as §1
The backbone of the 5749-base-pair pNFAT-Luc plasmid is the pFR-Luc reporter plasmid of the aforementioned PathDetect trans-reporting system. To this backbone, the GAL4 binding element was replaced with four direct repeats of the NFAT binding sequence (−286 to −257) from the IL-2 gene promoter, the most studied and widely used NFAT binding sequence. […]

In the case of `CCCCCCCCCCCCCC(=O)O[C@@H]1[C@@H](C)[C@@]2(O)[C@@H](C=C(CO)C[C@]3(O)C(=O)C(C)=C[C@@H]23)[C@@H]2C(C)(C)[C@]12OC(C)=O` [PMA], the luciferase activity increased [1] is reported as 13 fold, the luciferase activity increased [2] is reported as 16 fold and the “increase in luciferase activity” value [3] is reported as “did not show a significant increase”.
With `C[C@H](CCC(=O)O)C[C@H](C)C[C@H](C)C(=O)/C=C(\O)[C@H](C)C[C@H](C)C/C=C/[C@@H](C)[C@@H](O)[C@@H](C)[C@@H](O)C[C@@H]1CC[C@@](C)([C@H]2CC[C@@](C)([C@@H](C)O)O2)O1` [onomycin] the “increase in luciferase activity” value [3] was “did not show a significant increase”.
